Test results as given in US4514414A, “N-Substituted pyrrolidineacetic acids and their esters” (Smithkline Beckman Corporation, priority 1982, dated 1985).
pIC50: −log10 of the molar value.

Test system: GABA uptake by a crude synaptosomal fraction (P2) of the rat brain
Experiment: Inhibition of 3H-GABA uptake by crude synaptosomal fraction (P2) of rat brain
Format: biochemical
Conditions: rat brain P2 synaptosomal suspension, 37° C., 15 minutes preincubation, 1 μM 3H-GABA, incubation time 3 minutes; read-out: IC50 (concentration producing a 50% inhibition of GABA accumulation)
Description: The inhibition of GABA uptake produced by the compounds of this invention is measured by the ability of the active medicament to inhibit ^3 H-GABA uptake by a crude synaptosomal fraction (P2) of the rat brain. In this test system, aliquots of the P2 suspension are preincubated in a buffered physiological medium at 37° C. in the presence of test compound for 15 minutes. Uptake is initiated by the addition of ^3 H-GABA to a final concentration of 1 μM and terminated by filtration through a 0.45 um Millipore filter. Incubation time is 3 minutes. A compound producing a 50% or greater inhibition of GABA uptake at concentrations of 10 μM is considered to show biosignificant activity. The IC50 value is the concentration of a compound producing a 50% inhibition of GABA accumulation.

## O=C(O)CC1CCN(CCC=C(c2ccccc2)c2ccccc2)C1 (stereo not shown) [1-(4,4-diphenyl-3-butenyl)-3-pyrrolidineacetic acid]
  pIC50: 6.92
